pIC50: −log10 of the molar value. Converted amounts (≈) assume the structure as drawn.
Assays:
[1] = test system: Mycobacterium tuberculosis H37Rv; test: Microplate Alamar Blue assay; type: cell-based; details: for MIC: Mycobacterium tuberculosis, H37RV, 120 h, read-out: M. tuberculosis MIC, H37Rv, microplate Alamar Blue assay; for times more active than Pyrazinamide (MIC) / times more active than streptomycin (MIC): M. tuberculosis H37Rv
in vitro = details: mouse
[2] = test system: mouse embryonic fibroblasts cell line (NIH 3T3); details: SI = IC50 (NIH 3T3) / MIC (M. tuberculosis H37Rv)
B. substilis = test: MIC by two-fold serial dilution; type: cell-based, Bacillus subtilis

| Structure (SMILES) | MIC [1] [µM] | pIC50 (in vitro) | Selectivity index [2] | times more active than Pyrazinamide (MIC) [1] | times more active than streptomycin (MIC) [1] | times more active than Ciprofloxacin (MIC) (B. substilis) |
| --- | --- | --- | --- | --- | --- | --- |
| NC(=O)c1cnccn1 [Pyrazinamide, reference compound] | 25.4 (≈ 3.12 µg/mL) |  |  |  |  |  |
| [H]/N=C(/N)N[C@H]1[C@H](O)[C@@H](O)[C@H](O[C@@H]2O[C@@H](C)[C@](O)(C=O)[C@H]2O[C@@H]2O[C@@H](CO)[C@H](O)[C@@H](O)[C@@H]2NC)[C@@H](N/C(N)=N\[H])[C@@H]1O [Streptomycin, reference compound] | 11 (≈ 6.4 µg/mL) |  |  |  |  |  |
| O=C1C(=NNc2nc(-c3ccccc3)cs2)C(N=Cc2ccccc2Cl)=NN1c1ccccc1 [TZP4b, 3-[[(2-chlorophenyl)methylidene]amino]-1-phenyl-4-[2-(4-phenyl-1,3-thiazol-2-yl) hydrazin-1-ylidene]-4,5-dihydro-1H-pyrazol-5-one] |  | 3.00 |  |  |  |  |
| O=C1C(=NNc2nc(-c3ccccc3)cs2)C(N=Cc2cccc(Cl)c2)=NN1c1ccccc1 [TZP4c, 3-[[(3-chlorophenyl)methylidene]amino]-1-phenyl-4-[2-(4-phenyl-1,3-thiazol-2-yl) hydrazin-1-ylidene]-4,5-dihydro-1H-pyrazol-5-one] |  | < 3.00 | 82.85 |  |  |  |
| O=C1C(=NNc2nc(-c3ccccc3)cs2)C(N=Cc2ccc(Cl)cc2)=NN1c1ccccc1 [TZP4d, 3-[[(4-chlorophenyl)methylidene]amino]-1-phenyl-4-[2-(4-phenyl-1,3-thiazol-2-yl) hydrazin-1-ylidene]-4,5-dihydro-1H-pyrazol-5-one] |  | < 3.00 | 22.37 |  |  |  |
| O=C1C(=NNc2nc(-c3ccccc3)cs2)C(N=Cc2ccccc2O)=NN1c1ccccc1 [TZP4f, 3-[[(2-hydroxyphenyl)methylidene]amino]-1-phenyl-4-[2-(4-phenyl-1,3-thiazol-2-yl) hydrazin-1-ylidene]-4,5-dihydro-1H-pyrazol-5-one] | 53.6 (≈ 25 µg/mL) |  | 24.44 |  |  |  |
| O=C1C(=NNc2nc(-c3ccccc3)cs2)C(N=Cc2ccc(O)cc2O)=NN1c1ccccc1 [TZP4g, 3-[[(2,4-dihydroxyphenyl)methylidene]amino]-1-phenyl-4-[2-(4-phenyl-1,3-thiazol-2-yl) hydrazin-1-ylidene]-4,5-dihydro-1H-pyrazol-5-one] | 12.9 (≈ 6.25 µg/mL) | < 3.00 | 168.88 | 1.69 | 3.91 | 1.45 |
| O=C1C(=NNc2nc(-c3ccccc3)cs2)C(N=Cc2ccc(O)c(O)c2)=NN1c1ccccc1 [TZP4h, 3-[[(3,4-dihydroxyphenyl)methylidene]amino]-1-phenyl-4-[2-(4-phenyl-1,3-thiazol-2-yl) hydrazin-1-ylidene]-4,5-dihydro-1H-pyrazol-5-one] | 6.48 (≈ 3.13 µg/mL) |  | 199.07 | 3.9 | 1.69 | 1.45 |
| COc1cccc(C=NC2=NN(c3ccccc3)C(=O)C2=NNc2nc(-c3ccccc3)cs2)c1 [TZP4i, 3-[[(3-methoxyphenyl)methylidene]amino]-1-phenyl-4-[2-(4-phenyl-1,3-thiazol-2-yl) hydrazin-1-ylidene]-4,5-dihydro-1H-pyrazol-5-one] | 26 (≈ 12.5 µg/mL) |  |  |  |  |  |
| COc1cc(C=NC2=NN(c3ccccc3)C(=O)C2=NNc2nc(-c3ccccc3)cs2)ccc1O [TZP4j, 3-[[(4-hydroxy-3-methoxyphenyl)methylidene]amino]-1-phenyl-4-[2-(4-phenyl-1,3-thiazol-2-yl) hydrazin-1-ylidene]-4,5-dihydro-1H-pyrazol-5-one] | 25.2 (≈ 12.5 µg/mL) |  |  |  |  | 2.99 |
| CN(C)c1ccc(C=NC2=NN(c3ccccc3)C(=O)C2=NNc2nc(-c3ccccc3)cs2)cc1 [TZP4k, 3-[{[4-(dimethylamino)phenyl]methylidene}amino]-1-phenyl-4-[2-(4-phenyl-1,3-thiazol-2-yl) hydrazin-1-ylidene]-4,5-dihydro-1H-pyrazol-5-one] | 13 (≈ 6.4 µg/mL) |  |  |  |  |  |
| O=C1C(=NNc2nc(-c3ccccc3)cs2)C(N=Cc2ccc([N+](=O)[O-])cc2)=NN1c1ccccc1 [TZP4l, 3-[[(4-nitrophenyl)methylidene]amino]-1-phenyl-4-[2-(4-phenyl-1,3-thiazol-2-yl) hydrazin-1-ylidene]-4,5-dihydro-1H-pyrazol-5-one] |  | < 3.00 | 20.32 |  |  |  |

Reference: paper PMC3697191 (Journal of Pharmacy & Bioallied Sciences, 2013)
